The values that follow come from ChEMBL document CHEMBL1201862, “PubChem BioAssay data set” (2004).

What all share (assay): NCI-60 cell line screen, 48 h
The test system of assay [1] is 786-0.
Assay [2] has as its system ACHN.
In assay [3] the test system is CAKI-1.
Assay [4] deals with CCRF-CEM.
The test system of assay [5] is DMS-273.
The subject of assay [6] is DU-145.
Assay [7] has as its system HCT-116.
The test system of assay [8] is HOP-62.
For assay [9], the system named is Hs-578T.
Assay [10] deals with KM12.
For assay [11], the system named is NCI-H460.
Assay [12] concerns NCI/ADR-RES.
The subject of assay [13] is OVCAR-4.
Assay [14] relates to OVCAR-5.
In assay [15] the test system is RPMI-8226.
Assay [16] has as its system SK-MEL-2.
In assay [17] the test system is SW-620.
In assay [18] the test system is TK-10.
Assay [19] has as its system U-251.
Assay [20] has as its system UO-31.

Where “and” joins values, the source holds several entries; their conditions need not be identical. Equal values may be shown once.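 Method: 48-hour compound exposure of cells in 96-well plates, five concentrations, linear interpolation of endpoints. GI50 marks 50% less growth.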 Calls of active or inactive are those of the source. No stated cut-off is given here; in the data, active = GI50 up to about 1.1 µM and inactive = higher.

Regarding `CCCCCCCCOC(=O)c1cc([N+](=O)[O-])c(Sc2[nH]cnc3ncnc2-3)c([N+](=O)[O-])c1`, the GI50 in [1] is 1.47 µM (inactive); in [2] it was 2.92 µM (inactive); in assay [3], 3.37 µM (inactive); in assay [4] it was 0.288 µM (active); in assay [5], 0.425 µM (active); in assay [6], 1.27 µM (inactive). Further, the GI50 in [7] is 1.84 µM (inactive); in [8], 3.03 µM (inactive); in assay [9], 5.33 µM (inactive); in assay [10], 3.45 µM (inactive); in [11], 3.4 µM (inactive); in assay [12] it was 3 µM (inactive). Further, the GI50 in assay [13] was 3.49 µM (inactive); in assay [14] it was 3.15 µM (inactive); in [15], 0.512 µM (active); in assay [16], 4.53 µM (inactive); in assay [17], 1.76 µM (inactive); in assay [18], 1.85 µM (inactive). For the same compound, the figures for the GI50 in assay [19] and in [20] were 3.44 µM (inactive) and 3.85 µM (inactive), respectively.

In the case of `COc1cccc2c1C(=O)c1c(O)c3c(c(O)c1C2=O)C[C@@](O)(C(=O)CO)C[C@@H]3OC1CC(N(C)C)C(O)C(C)O1` (stereo not given in full), the GI50 is < 0.0197 µM (active) in [1]; < 0.01 µM (active) in assay [2]; < 0.01 µM (active) in assay [3]; 0.0991 µM (active) in [4]; < 0.0106 µM (active) in [5]; 0.0519 µM (active) in assay [6]. Moreover, the GI50 in assay [7] is < 0.01 µM (active); in assay [8] it was 0.0272 µM (active); in assay [9], < 0.01 µM (active); in assay [10], < 0.016 µM (active); in [11] it was < 0.01 µM (active); in assay [13], < 0.0189 µM (active). Further, the GI50 is 0.0643 µM (active) in assay [14]; < 0.0175 µM (active) in assay [15]; < 0.0212 µM (active) in assay [16]; < 0.01 µM (active) in assay [17]; 0.0303 µM (active) in assay [18]; < 0.0134 µM (active) in assay [19]. In addition, the GI50 in [20] is 0.0204 µM (active).

Regarding `CCOc1ccc(/N=N/c2c(-c3ccccc3)nn(C(=O)CC(=O)Nc3ccccc3Cl)c2-c2ccccc2)cc1`, the GI50 was > 100 µM (inactive) in [1]; 33.3 µM (inactive) in assay [2]; 23.4 µM (inactive) in assay [3]; 25.4 µM (inactive) in assay [4]; 18.3 µM (inactive) in assay [5]; 35.6 µM (inactive) in assay [7]. Also, the GI50 in assay [8] is 93.8 µM (inactive); in [10] it was 46.1 µM (inactive); in assay [11], 46.5 µM (inactive); in assay [13], 47.4 µM (inactive); in assay [14] it was > 100 µM (inactive); in assay [15], 37.4 µM (inactive). Also, the GI50 in assay [16] is > 100 µM (inactive); in assay [17] it was > 100 µM (inactive); in assay [18] it was 74.6 µM (inactive); in assay [19], 48.9 µM (inactive); in [20], 28.9 µM (inactive).

Turning to `CCOC(=N)CC(=O)Nc1ccccc1`, the GI50 was > 46.5 µM (inactive) in assay [1]; > 46.5 µM (inactive) in [2]; > 100 µM (inactive) in [3]; 19.4 µM (inactive) in assay [4]; > 46.5 µM (inactive) in [5]; > 46.5 µM (inactive) in [7]. Besides, the GI50 in [8] is > 46.5 µM (inactive); in [10] it was > 46.5 µM (inactive); in assay [11], > 46.5 µM (inactive); in [13], 34.5 µM (inactive); in assay [14], > 100 µM (inactive); in assay [15] it was 15.9 µM (inactive). Further, the GI50 in assay [16] was > 31.6 µM (inactive); in assay [17] it was 36.9 µM (inactive); in assay [18] it was > 46.5 µM (inactive); in assay [19], > 100 µM (inactive); in assay [20] it was > 46.5 µM (inactive).

As for `CC(=O)OC1C/C(C)=C/CCC(C)/C=C/C2(C)CCC(C(C)(C)O)C12` (stereo not given), the GI50 in [1] was 65 µM (inactive); in assay [2] it was 36 µM (inactive); in [3], 59 µM (inactive); in assay [4], 28.6 µM (inactive); in assay [5], 44.2 µM (inactive); in assay [7], 26.2 µM (inactive). Further, the GI50 was 88.1 µM (inactive) in [8]; 51.2 µM (inactive) in assay [10]; 39.2 µM (inactive) in assay [11]; 49.8 µM (inactive) in [13]; > 100 µM (inactive) in [14]; 23.2 µM (inactive) in assay [15]. The GI50 in [16] was 34.4 µM (inactive); in [17], 47.5 µM (inactive); in assay [18], > 100 µM (inactive); in assay [19], 39.4 µM (inactive); in assay [20], 37.3 µM (inactive).

As to `O=C1C=Cc2c(-c3ccccc3)oc3cccc1c23`, the GI50 is 23.7 µM (inactive) in assay [1]; 13.2 µM (inactive) in assay [2]; 6.55 µM (inactive) in [3]; 15 µM (inactive) in assay [4]; 5.98 µM (inactive) in assay [5]; 16.9 µM (inactive) in assay [7]. Besides, the GI50 was 13.8 µM (inactive) in assay [8]; 28.5 µM (inactive) in assay [10]; 5.07 µM (inactive) in assay [11]; 40.7 µM (inactive) in assay [13]; 26.4 µM (inactive) in assay [14]; 3.97 µM (inactive) in assay [15]. For the same compound, the GI50 was 67.1 µM (inactive) in [16]; 18.7 µM (inactive) in assay [17]; 39.7 µM (inactive) in [18]; 8.91 µM (inactive) in assay [19]; 6.35 µM (inactive) in assay [20].

In the case of `COC(=O)[C@@H]1[C@H](O)[C@H](C)[C@H](O)[C@@](C)(O)/C=C\C=C(\C)C(=O)Nc2c(C)c(OC(C)=O)c3c(c2O)C(=O)C(C)=C2OCOC(=C23)/C(C)=C/[C@@](C)(O)[C@H](O)[C@@H](C)[C@H]1OC(C)=O`, the GI50 in assay [1] was > 100 µM (inactive) and 69.5 µM (inactive); in assay [2] it was 79.4 µM (inactive); in [3] it was 93.8 µM (inactive); in assay [4], 15.8 µM (inactive); in assay [5], > 100 µM (inactive) and 60 µM (inactive); in assay [6], > 66.8 µM (inactive). Besides, the GI50 in [7] is 29.2 µM (inactive); in [8], 40.5 µM (inactive); in assay [10], 47.8 µM (inactive); in assay [11], 49 µM (inactive); in [13] it was 55.6 µM (inactive); in assay [14] it was > 66.8 µM (inactive). In addition, the GI50 in assay [15] is 31.8 µM (inactive); in [16], 37.2 µM (inactive); in [17], 9.91 µM (inactive) and 59 µM (inactive); in assay [18] it was > 66.8 µM (inactive); in assay [19] it was 17.3 µM (inactive); in [20] it was 25.9 µM (inactive).
